Laboratory results published in patent publication US20170319501A1, “Oral Pharmaceutical Dosage Forms” (DURECT CORPORATION, priority 2007, published 2017).

Assays:
[1] = intravenous bolus dosing, human, open literature data; cited from earlier work
[2] = Preliminary in vitro volatilization test on hot plate (Example 4a); assay type: physicochemical; settings: 40 mg sample; for Oxycodone Collected (in mg), total: total of 4 time points
Text: In order to further assess the abuse-resistance performance of the dosage forms of the present invention, the following in vitro volatilization test was developed. In particular, intentional abuse of controlled release pharmaceutical dosage forms may alternatively be carried out by volatilization (smoking, or free-basing) techniques that can liberate active agent (in immediately active form) from commercially available controlled release carrier systems. Accordingly, a preliminary in vitro volatilization test was developed in order to assess: (1) whether oxycodone free base was more volatile than the salt (HCl) form; and (2) whether the abuse-resistant dosage forms produced according to the instant invention can prevent inhalation abuse through volatilization.
Each petri dish was fitted with a watch glass as a cover, and the covered test dishes were placed on a hot plate (setting 10). After 30 seconds each watch glass was replaced with a fresh watch glass, and this step was repeated three times (to obtain 4 time points). Any residue deposited on the bottom side of the test watch glasses was carefully transferred with an Alpha Swab (TX 761) into 40/60 ethanol/0.005M HCl solution, and the concentration of oxycodone solution was determined by HPLC. The observations taken during the test were as follows. […] It was noted that vaporized drug (and solvents where present) escaped during each change of the watch glass, which may be at least partially responsible for the low recovery noted in the HPLC results below. […] The HPLC results obtained in this Example 4a are provided below in Table 30.

[3] = Thermal gravimetric analysis of oxycodone base and oxycodone HCl; assay type: physicochemical
Description: Initially, thermal gravimetric analysis was used to measure the weight loss of oxycodone base and oxycodone HC1 in order to determine the correct temperature to conduct the volatilization study. Oxycodone base was subjected to increasing temperature conditions (30 to 350° C.) at a ramping rate of 20° C./min. Vaporization occurred above 200° C. and was complete at 310° C. Vaporization of oxycodone HCl (28 to 400° C.) was analogous to that of the free base up to approximately 300° C. after which significant decomposition of the salt form occurred. Based on these observations, a temperature of 280° C. was selected for this study. This temperature is above the melting point of oxycodone (to ensure adequate drug vaporization) and below 300° C. (to limit decomposition of the salt form). A maximum exposure time of 10 minutes was selected based on pre-test observations that little additional oxycodone was recovered beyond that time point.

[4] = Solubility of the active agent in Triacetin and in water (stated); assay type: physicochemical

C[C@H](N)Cc1ccccc1 [d-amphetamine]
unit impulse response parameter A [1]: 98.3±6.01
unit impulse response parameter B [1]: 28.2±0.56
unit impulse response parameter α [1]: 9.65±0.64
unit impulse response parameter β [1]: 6.31×10^−2±3.78×10^−3

COc1ccc2c3c1O[C@H]1C(=O)CC[C@@]4(O)[C@@H](C2)N(C)CC[C@]314.Cl [oxycodone API (HCl salt form)]
Oxycodone Collected ([2]; time point 0.5 minutes): 1.7202 mg
Oxycodone Collected ([2]; time point 1.0 minutes): 0.4086 mg
Oxycodone Collected ([2]; time point 1.5 minutes): 0.1236 mg
Oxycodone Collected ([2]; time point 2.0 minutes): 0.0270 mg
Oxycodone Collected (in mg), total [2]: 2.2794 mg

COc1ccc2c3c1O[C@H]1C(=O)CC[C@@]4(O)[C@@H](C2)N(C)CC[C@]314 [oxycodone API (free base form)]
Oxycodone Collected ([2]; time point 0.5 minutes): 1.4730 mg
Oxycodone Collected ([2]; time point 1.0 minutes): 7.2666 mg
Oxycodone Collected ([2]; time point 1.5 minutes): 0.7356 mg
Oxycodone Collected ([2]; time point 2.0 minutes): 0.7050 mg
Oxycodone Collected (in mg), total [2]: 10.1802 mg

COc1ccc2c3c1O[C@H]1C(=O)CC[C@@]4(O)[C@@H](C2)N(C)CC[C@]314 [oxycodone free base, oxycodone]
temperature above which vaporization occurred ([3]; ramping rate 20° C./min): above 200 °C
temperature at which vaporization was complete ([3]; ramping rate 20° C./min): 310 °C
solubility in Triacetin [4]: high solubility in Triacetin
solubility in water [4]: low water solubility

COc1ccc2c3c1O[C@H]1C(=O)CC[C@@]4(O)[C@@H](C2)N(C)CC[C@]314.Cl [oxycodone in salt form, oxycodone HCl]
temperature after which significant decomposition occurred ([3]; 28 to 400° C.): approximately 300 °C
solubility in Triacetin [4]: low solubility in Triacetin
solubility in water [4]: high solubility in water
